Data: patent US11351137B2, “Composition and method for dual targeting in treatment of neuroendocrine tumors” (NANOPHARMACEUTICALS LLC, priority 2018, dated 2022)
“Also recorded” adds a separate entry of the source.

Assays:
SKNF2 cell lines [1] = assay: Comparative examples: BG, BG derivatives, TAT derivative and co-administration versus Composition 300 in mice implanted with SKNF2 cell lines; format: in vivo; conditions: for Percentage of Tumor Growth Suppression / Reduction of tumor viability: Dosage 3 mg/kg
Experimental: FIGS. 12a and 12b shown the effect of the control and treatment with BG, BG derivatives, thyrointegrin antagonists such as TAT derivatives, and combinations (co-administration) thereof, versus Composition 300 (BG-P-TAT) on tumor cell necrosis of mice implanted with SKNF2 cell lines.
Further, even a combination treatment of two triazole tetrac derivatives in combination delivered subcutaneously daily for three (3) weeks at 3 mg/kg only achieves a reduction of 40-50% for tumor growth and tumor viability. Similar results are obtained with treatments using benzyl guanidine and benzyl guanidine derivatives.
For example, the graph of FIG. 12b includes the effect of a triazole tetrac derivative (referred to as TAT) on tumor weight when compared with a control group (phosphate-buffered saline “PBS”). The specific derivative tested was beta cyclodextrin triazole tetrac.
Again, beta cyclodextrin triazole tetrac was the tetrac derivative used.
Composition 300 achieves approximately 80% reduction in tumor. Further, the viability of residual tumor was reduced by 80%.

SKNF2 cell lines [2] = assay: as above; format: in vivo; conditions: 3 mg/kg subcutaneously daily for 15 days (FIGS. 12a, 12b)
[3] = system: neuroblastoma SKNF1 cells; assay: Compositions 7a, 7b and 15 on subcutaneously implanted SKNF1 neuroblastoma tumor in female nude mice; format: in vivo
Experimental: The efficacy of Compositions 7a (dI-BG-P-TAT), 7b (dM-BG-P-TAT), and 15 (BG-P-PAT) were tested using neuroblastoma SKNF1 cells implanted into nude female mice similar to the examples discussed above for Composition 300 (BG-P-TAT).
Further, to compare the histopathological changes in tumors of untreated and treated groups, tumors were harvested, fixed, and stained with hematoxylin and eosin (H&E). Necrosis at low magnification of tumors from animals treated with compounds 7a, 7b, and 15 versus control is seen clearly as shown in Figure. […] On the other hand, tumors from the untreated group had mostly viable tumor cells. […]

[4] = biological target: purified integrin αvβ3 receptor (Homo sapiens, UniProt P05106+P06756); assay: Binding affinity towards purified integrin αvβ3 receptor
Sequence of purified integrin αvβ3 receptor (P06756 31-889 limits assumed): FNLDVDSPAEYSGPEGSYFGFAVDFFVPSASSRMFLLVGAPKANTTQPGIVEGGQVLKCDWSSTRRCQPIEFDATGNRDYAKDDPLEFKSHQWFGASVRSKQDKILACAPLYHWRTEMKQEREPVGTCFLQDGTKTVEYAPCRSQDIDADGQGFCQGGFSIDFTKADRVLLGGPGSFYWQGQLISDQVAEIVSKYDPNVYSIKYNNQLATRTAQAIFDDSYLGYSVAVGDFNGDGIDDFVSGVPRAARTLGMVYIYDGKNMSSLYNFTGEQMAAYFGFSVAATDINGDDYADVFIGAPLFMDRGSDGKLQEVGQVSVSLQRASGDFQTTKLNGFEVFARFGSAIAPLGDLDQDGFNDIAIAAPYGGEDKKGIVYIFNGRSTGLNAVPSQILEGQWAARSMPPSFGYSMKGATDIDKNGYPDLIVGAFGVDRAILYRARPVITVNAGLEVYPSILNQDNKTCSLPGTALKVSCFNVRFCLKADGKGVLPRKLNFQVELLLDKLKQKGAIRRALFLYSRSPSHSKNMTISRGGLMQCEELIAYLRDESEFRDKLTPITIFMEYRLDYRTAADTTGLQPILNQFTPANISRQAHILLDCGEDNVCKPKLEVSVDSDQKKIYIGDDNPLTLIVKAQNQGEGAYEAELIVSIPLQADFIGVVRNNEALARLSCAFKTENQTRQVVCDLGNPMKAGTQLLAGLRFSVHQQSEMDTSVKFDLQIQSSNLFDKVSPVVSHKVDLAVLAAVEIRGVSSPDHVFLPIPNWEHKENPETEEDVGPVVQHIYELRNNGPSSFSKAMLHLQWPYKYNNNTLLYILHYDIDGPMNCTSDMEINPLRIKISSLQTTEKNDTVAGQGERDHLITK
Sequence of purified integrin αvβ3 receptor (P06756 891-1048 partner limits assumed): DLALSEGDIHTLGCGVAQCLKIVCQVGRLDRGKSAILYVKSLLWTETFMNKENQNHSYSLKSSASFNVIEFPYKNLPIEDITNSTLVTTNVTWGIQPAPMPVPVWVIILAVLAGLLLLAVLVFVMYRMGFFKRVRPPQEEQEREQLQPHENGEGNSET
Sequence of purified integrin αvβ3 receptor (P05106 27-788): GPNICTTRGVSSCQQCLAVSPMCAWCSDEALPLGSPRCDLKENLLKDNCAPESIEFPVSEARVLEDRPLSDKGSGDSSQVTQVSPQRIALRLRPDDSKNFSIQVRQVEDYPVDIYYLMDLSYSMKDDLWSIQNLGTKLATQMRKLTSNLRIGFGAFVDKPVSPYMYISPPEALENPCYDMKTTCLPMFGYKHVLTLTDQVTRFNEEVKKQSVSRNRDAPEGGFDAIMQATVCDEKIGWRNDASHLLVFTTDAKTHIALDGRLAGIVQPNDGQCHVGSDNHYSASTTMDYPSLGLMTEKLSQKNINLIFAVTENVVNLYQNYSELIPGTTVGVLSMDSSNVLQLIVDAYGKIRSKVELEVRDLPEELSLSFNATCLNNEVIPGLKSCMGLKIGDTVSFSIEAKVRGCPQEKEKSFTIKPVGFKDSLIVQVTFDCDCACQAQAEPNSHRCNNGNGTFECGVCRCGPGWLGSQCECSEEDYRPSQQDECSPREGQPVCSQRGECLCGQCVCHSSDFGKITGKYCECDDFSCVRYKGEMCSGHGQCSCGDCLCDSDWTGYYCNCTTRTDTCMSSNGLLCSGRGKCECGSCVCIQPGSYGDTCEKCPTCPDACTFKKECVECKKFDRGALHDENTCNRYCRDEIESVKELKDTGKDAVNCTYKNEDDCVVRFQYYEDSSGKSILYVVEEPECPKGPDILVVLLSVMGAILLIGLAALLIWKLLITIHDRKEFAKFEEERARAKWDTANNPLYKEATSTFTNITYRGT

[5] = system: SKNF1 neuroblastoma tumors; assay: Cy5 fluorescence imaging of subcutaneously implanted SKNF1 tumor in athymic female mice; format: in vivo; conditions: Cy5 labeled; 1-24 hours post-administration; compared with triazole tetrac derivative alone or benzyl guanidine derivative alone
Experimental: Athymic female mice were implanted twice each with 10^6 cells/implant. The SKNF1 cell line was used with subcutaneous xenografts.
Group 1 consisted of three mice and were treated with PEG-TAT-dye (Cy5). Group 2 consisted of three mice and were treated with PEG-BG-dye (Cy5). Group 3 consisted of three mice and were treated with TAT-PEG-BG-dye (Cy5) wherein the TAT and BG were covalently linked with a PEG linker as compound 300. The treatment groups are shown below:
Fluorescence imaging (Cy5) was conducted 1 hour, 2 hours, 4 hours, 6 hours, and 24 hours post-administration. Imaging results are shown in FIGS. 13a and 13b, in which the tumor location is circled in yellow and the Cy5 dye appears as red.

[6] = system: neuroblastoma SKNF2 cells; assay: Composition 300 dose response on subcutaneously implanted SKNF2 neuroblastoma tumor in female nude mice; format: in vivo; conditions: for tumor shrinkage (tumor weight) / tumor cell viability / tumor cell necrosis rate: 15 days; for tumor cell viability: control 70-75%
Experimental: The efficacy of Composition 300 (BG-P-TAT) was tested using neuroblastoma SKNF2 cells implanted into nude female mice.
Fifteen (15) female nude mice were implanted with twice with 10^6 cells/implant. The SKNF2 cell line was used with subcutaneous xenografts.
Eight (8) days following implantation, the mice were divided into four groups receiving the following treatment for 15 days:
Following fifteen (15) days of treatment, tumors were collected in order to evaluate histopathology, and the following results were collected: […]

In the case of `N=C(N)NCc1ccccc1` [BG, benzyl guanidine], the “Percentage of Tumor Growth Suppression” value (SKNF2 cell lines [1]) is reported as 40-50% and the “Reduction of tumor viability” value (SKNF2 cell lines [1]) is reported as 40-50%.

In the case of beta cyclodextrin triazole tetrac [TAT], the “Percentage of Tumor Growth Suppression” value (SKNF2 cell lines [1]) is reported as 40-50%, the “Reduction of tumor viability” value (SKNF2 cell lines [1]) is reported as 40-50% and the “tumor weight shrinkage / reduction versus control (PBS)” value (SKNF2 cell lines [2]) is reported as 40-50%.

For `N=C(N)NCc1ccc(OCCOCCOCCOCCOCCOCCOCCOCCN2CCN(CCCOc3c(I)cc(Oc4c(I)cc(CC(=O)O)cc4I)cc3I)CC2)cc1` [Composition 15], the “tumor volume over twenty days” value ([3]; 3 mg/kg subcutaneously, 20 days, control rose from 175 mm^3 to 1000 mm^3) was “no substantial increase”, the “areas of necrosis, fibrosis and cell debris (H&E staining)” value ([3]; 3 mg/kg, 20 days of treatment) was “approximately 98%” and the “decrease in tumor weight versus control” value ([3]; 3 mg/kg, 20 days of treatment) was 90%. For the same molecule, the IC50 [4] was 0.3 nM and the “fold increase in binding affinity relative to BG-P-TAT” value ([4]; αvβ3 binding) was roughly 30 fold.

For `N=C(N)NCc1cccc([131I])c1` [MIBG, meta-iodobenzylguanidine], the “Percentage of Tumor Growth Suppression” value (SKNF2 cell lines [1]) was 40-50% and the “Reduction of tumor viability” value (SKNF2 cell lines [1]) was 40-50%.

In the case of `N=C(N)NCc1ccc(OCCOCCOCCOCCOCCOCCOCCn2cc(COc3c(I)cc(Oc4c(I)cc(CC(=O)O)cc4I)cc3I)nn2)cc1` [Composition 300, 2-(4-(4-((1-(20-(4-(guanidinomethyl)phenoxy)-3,6,9,12,15,18-hexaoxaicosyl)-1H-1,2,3-triazol-4-yl)methoxy)-3,5-diiodophenoxy)-3,5-diiodophenyl)acetic acid], the “reduction of viability of residual tumor” value (SKNF2 cell lines [1]; 3 mg/kg) is reported as 80%, the “tumor weight shrinkage / reduction versus control (PBS)” value (SKNF2 cell lines [1]; 3 mg/kg subcutaneously daily for 15 days (FIGS. 12a, 12b), listed as BG-P-TAT) is reported as 80% and the “Percentage of Tumor Growth Suppression” value (SKNF2 cell lines [1]) is reported as 80-90%. For the same molecule, the “Reduction of tumor viability” value (SKNF2 cell lines [1]) was 80-90%, the “retention time within the tumor (Cy5 fluorescence)” value [5] was “marked improvement” and the “uptake into the SKNF1 neuroblastoma tumors (Cy5 fluorescence)” value [5] was “marked improvement; also recorded: highest intensity accumulation”. The IC50 [4] was 10.3 nM, the “tumor shrinkage (tumor weight)” value ([6]; 1 mg/kg daily) was 60% and the tumor cell viability ([6]; 1 mg/kg daily) was 50%. The “tumor cell necrosis rate” value ([6]; 1 mg/kg) was “approximately 50%”, the “tumor shrinkage (tumor weight)” value ([6]; 3 mg/kg daily) was 80% and the tumor cell viability ([6]; 3 mg/kg daily) was 20. The “tumor cell necrosis rate” value ([6]; 3 mg/kg) was “approximately 80%”, the “tumor shrinkage (tumor weight)” value ([6]; 10 mg/kg daily) was 100% and the tumor cell viability ([6]; 10 mg/kg daily) was 0.00%. The “tumor volume after 15 days of treatment” value ([6]; 10 mg/kg group, start approximately 825 mm^3, control rose to 1050 mm^3) was roughly 100 mm^3, the “tumor cell necrosis rate” value ([6]; 10 mg/kg) was roughly 100% and the “effect on animal body weight” value ([6]; 1, 3 and 10 mg/kg subcutaneously daily for 15 days, versus control animals) was “no effect; also recorded: no significant changes”. For the same molecule, the cancer cell necrosis ([6]; at the 3 and 10 mg/kg doses (FIG. 11 legend)) was 80-100%, the “abnormal animal head movements (circling) seen in control mice” value ([6]; treated mice, 1-10 mg/kg) was “disappearance” and the tumor vasculature ([6]; treatment groups 1-10 mg/kg versus control) was “clearly diminished”.
